Results from patent publication US7728128B2, “Dibenzo[c,h][1,5]naphthyridines and their use as DNA probes” (Institut National de la Sante et de la Recherche Medicate …, priority 2006, dated 2010).

Tests used:
[1] = system: plasmid DNA; assay: absorption of free molecules before and after addition of plasmid DNA; type: physicochemical; set-up: Absorption maxima free dye / Absorption maxima DNA bound dye: unit not given here; conditions: for Absorption maxima DNA bound dye: after addition of plasmid DNA; for Absorption maxima free dye: free molecule, before addition of plasmid DNA
Protocol: (§1) Plasmid dsDNA was purified using a Qiagen Maxiprep kit and used in the supercoiled form for absorption and fluorescence studies. E. coli total RNA was bought from Ambion, dA/dT and dG/dC homopolymers were purchased from Amersham Biosciences. Calf thymus (CT) high-molecular weight DNA and Hoechst 33258 were obtained from Sigma-Aldrich. Ethidium bromide was purchased from Amresco.
(§2) Spectrometry and fluorimetry were performed using a SpectraMax384 (Molecular Devices) and a Luminescence Spectrometer LS50B (Perkin Elmer). Fluorescence emission of compound I in complex with DNA and RNA was measured in 50 mM Na phosphate buffer, pH 7.2 at room temperature. Before use, total E. coli RNA was heated to 100° C. for 1 min and immediately transferred on ice for 5 min before mixing with compound I solution. All measurements were carried out at room temperature (20-23° C.) in solutions protected from light and incubated for ˜10-15 min after dilution. The units of b/dye and bp/dye are defined as moles of RNA bases or DNA base pairs per mole of dye. Quantum yield was measured using quinine sulphate as standard as described in (Iupac Commission on Photochemistry, EPA Newsletter of November 1986, 21-29) using FLUOROMAX-3 Spex Spectrofluorometer (HORIBA) and UVIKON XL Spectrophotometer (SECOMAM).
(§3) Although compound I also stains mitotic chromosomes (FIG. 1D), theoretically it was possible that it binds specifically to DNA-associated proteins (for example histones) rather than to nucleic acids. To resolve this issue, the absorption and emission spectra of free compound I before and after addition of dsDNA were recorded. […] Molar extinction coefficient (EC) of free compound I at 391 nm was measured at 10,800 cm^−1 M^−1. In the presence of ds plasmid DNA the absorption peaks of compound I at 373 and 391 nm decreased, and a new peak appears with a maximum at 435 nm (FIG. 1E). An overlay of the absorption spectra in complex with dsDNA at different bp per dye ratios gives a single isosbestic point at 398 nm. Free compound I fluoresces around 438 nm (the exact position of the peak depends on the excitation wavelength). […] At the same time, a new peak evolves with a maximum around 484 nm (FIG. 1F). The exact maximum of fluorescence of compound I/DNA complexes varies insignificantly as a function of the dye/bp ratio and/or base pairs composition of the nucleic acids. […] The quantum yield for compound I (excited at 435 nm) at 5 μM in 50 mM Na-phosphate, pH 7.2, was determined to be 2.7% for free dye and 13.8% in admixture with 50 μM CT DNA.
(§4) To get a further insight into how the structural properties of compound I contribute to its binding to DNA, the inventors analysed fourteen structural analogues present in the compound library. Although several of these compounds are fluorescent in vivo, this property went undetected in the initial screen most likely due to the latency period before the appearance of the signal (see below). To evaluate the activity of compound I-like molecules three tests were used: (1) in vivo, the inventors incubated human fibroblasts in the presence of the molecules and scored nuclear fluorescence in the microscope; (2 and 3) in vitro, the inventors looked at the absorption and fluorescence of free molecules before and after addition of plasmid DNA. […] With the exception of compound I and analogues 8 and 12, accurate in vitro measurement of the fluorescence intensities was impossible because the emission peaks for the free molecules were too close to that for the DNA-bound dye. This affected the height of the dye/DNA peaks.

[2] = system: plasmid DNA; assay: fluorescence of free molecules before and after addition of plasmid DNA; type: physicochemical; set-up: Fluorescence maxima free dye / Fluorescence maxima DNA bound dye: unit not given beside the values; conditions: for Fluorescence maxima free dye: free molecule, before addition of plasmid DNA; for Fluorescence maxima DNA bound dye: after addition of plasmid DNA
Protocol: as §1, §2, §3, §4

[3] = system: human fibroblasts; assay: in vivo nuclear fluorescence of human fibroblasts incubated with the molecules, scored in the microscope; type: cell-based; set-up: key: Weak: Staining was defined as “weak”, “moderate” or “strong” based on the nuclear signal/background ratio.; Moderate: Staining was defined as “weak”, “moderate” or “strong” based on the nuclear signal/background ratio.; Strong: Staining was defined as “weak”, “moderate” or “strong” based on the nuclear signal/background ratio; conditions: 10 μM, 10-60 min (up to 24 hours); Alexa488/FITC filter
Protocol: In this study, three different types of cells were used: Xenopus epithelial cell line XL177 (Miller, L. et al., 1977, In Vitro, 13, 557-563) stably transformed with a YFP-α-tubulin expressing construct (pEYFP-Tub, Clontech), mouse fibroblasts, and primary human skin fibroblasts. XL177 cells were grown at 20° C. in 60% Leibowitz-15 medium, supplemented with antibiotics, 10% fetal calf serum (FCS) and 10 mM HEPES, pH 7.2 with addition of 0.7 mg/ml G418. Cells were plated into glass-bottom 96-well plates (Greiner, Germany) and left to spread for 24 hours before being incubated in the presence of the test compounds from the Curie-CNRS small molecule library (at 25 or 50 μM final concentration) for another 20-24 hours. Mouse and human fibroblasts were grown in DMEM with antibiotics and 10% FCS at 37° C. in the presence of 5% CO2. The cells were observed using a Zeiss Axiovert 200M microscope with a 40× oil immersion objective and a standard Alexa488/FITC filter (Omega, XF100-2; Ex475AF40/Em535AF45/Dichroic505). Subsequent experiments were carried out using smaller concentrations of compound I and incubation times as described in the text and figures legends. For the in vivo tests of compound I-like compounds, the molecules were added to cell culture medium at 10 μM final concentration and incubated with cells 10-60 min (up to 24 hours) prior to scoring.
as §4

| SMILES | melting point [°C] | Absorption maxima DNA bound dye [1] | Absorption maxima free dye [1] | Fluorescence maxima free dye [2] | Fluorescence maxima DNA bound dye [2] | Images of the in vivo nuclear staining [3] |
| --- | --- | --- | --- | --- | --- | --- |
| Cc1nc2c3ccccc3cnc2c2ccccc12 [Compound 1, 6-Methyl-dibenzo[c,h][1,5]naphthyridine] | 153 |  |  |  |  |  |
| CCN(CC)CCCNCc1nc2c3ccccc3cnc2c2ccccc12 [Compound 2, N′-Dibenzo[c,h][1,5]naphthyridin-6-ylmethyl-N,N-diethyl-propane-1,3-diamine] |  | 365 | 360 |  |  |  |
| OCCNCCNc1nc2c3ccccc3cnc2c2ccccc12 [Compound 3, 2-[2-(Dibenzo[c,h][1,5]naphthyridin-6-ylamino)-ethylamino]-ethanol] | 100 | 375/375 | 375/375 |  |  |  |
| CN(C)CCNc1nc2c3ccccc3cnc2c2ccccc12 [Compound 4, N′-Dibenzo[c,h][1,5]naphthyridin-6-yl-N,N-dimethyl-ethane-1,3-diamine] |  | 375 | 370 | 404/ND |  |  |
| CN(C)CCNCc1nc2c3ccccc3cnc2c2ccccc12 [Compound 5, N′-dibenzo[c,h][1,5]naphthyridin-6-yl-methyl-N,N-dimethyl-ethane-1,2-diamine] | 160 |  |  |  |  |  |
| CN(C)CCCNCc1nc2c3ccccc3cnc2c2ccccc12 [Compound 6, N′-dibenzo[c,h][1,5]naphthyridin-6-yl-methyl-N,N-dimethyl-propane-1,3-diamine] | 45 |  |  |  |  |  |
| CC(CO)(CO)NCc1nc2c3ccccc3cnc2c2ccccc12 [Compound 7, N′-dibenzo[c,h][1,5]naphthyridin-6-yl-methylamino-2-methyl-propane-1,3-diol] | 156 |  | 365/ND |  |  |  |
| COc1ccc2c(c1)c(C)nc1c3ccccc3c(NCCCN(C)C)nc21 [Compound 8, N′-(2-methoxy-12-methyl-dibenzo[c,h][1,5]naphthyridin-6-yl)-N,N-dimethyl-propane-1,3-diamine] | 139 | 425 | 385 | 427 | 468 |  |
| COc1ccc2c(c1)c(NCCN(C)C)nc1c3ccccc3c(NCCN(C)C)nc21 [Compound 9, N6,N12-bis-(2-dimethylamino-ethyl)-2-methoxy-dibenzo[c,h][1,5]naphthyridin-6,12-diamine] | 169 | 395 | 375 | 468 | 472 | Weak |
| COc1ccc2c(c1)c(NCCCN(C)C)nc1c3ccccc3c(NCCCN(C)C)nc21 [Compound 10, N6,N12-bis-(3-dimethylamino-propyl)-2-methoxy-dibenzo[c,h][1,5]naphthyridine-6,12-diamine] | 155 | 402 | 380 | 478 | 485 | Moderate/ Strong |
| COc1ccc2c(c1)c(NCCCN(C)C)nc1c3ccc(OC)cc3c(NCCCN(C)C)nc21 [Compound 11, N,N′-bis-(3-dimethylaminopropyl)-2,8-dimethoxy-dibenzo[c,h][1,5]naphthyridin-6,12-diamine] | 216 | 405 | 390 | 484 | 500 | Moderate/ Strong |
| COc1ccc2c(c1)c(C)nc1c3ccc(OC)cc3c(NCCN(C)C)nc21 [Compound 12, N′-(2,8-dimethoxy-12-methyl-dibenzo[c,h][1,5]naphthyridin-6-yl)-N,N-dimethyl-ethane-1,3-diamine] |  | 435 | 390 | 435 | 475 | Weak |
| COc1ccc2c(cnc3c4ccc(OC)cc4c(NCCN(C)C)nc23)c1 [Compound 13, N′-(2,8-dimethoxy-dibenzo[c,h][1,5]naphthyridin-6-yl)-N,N-dimethyl-ethane-1,3-diamine] |  | 394 | 390 | 425 | 407 | Moderate^§ |
| COc1ccc2c(c1)c(NCCN(C)C)nc1c3ccc(OC)cc3c(NCCN(C)C)nc21 [Compound 14, N,N′-bis-(3-dimethylamino-ethyl)-2,8-dimethoxy-dibenzo[c,h][1,5]naphthyridin-6,12-diamine] | 209 | 400/400 | 400/400 | 468 | 482 | Weak |
